In ChEMBL document CHEMBL3994575, “Helixconstraints and amino acid substitution in GLP-1 increase cAMP and insulin secretion but not beta-arrestin 2 signaling” (Eur J Med Chem, 2017) one finds EC50 and Ki data, which are given here for four compounds.

Positions of bridges follow the written chain, without caps; N, C: chain ends. Residues, ends and D or L forms follow the SMILES beside them.

For assay [1], the target named is T1, Glucagon-like peptide 1 receptor (Rattus norvegicus, UniProt P32301).
T1 sequence (P32301 whole entry): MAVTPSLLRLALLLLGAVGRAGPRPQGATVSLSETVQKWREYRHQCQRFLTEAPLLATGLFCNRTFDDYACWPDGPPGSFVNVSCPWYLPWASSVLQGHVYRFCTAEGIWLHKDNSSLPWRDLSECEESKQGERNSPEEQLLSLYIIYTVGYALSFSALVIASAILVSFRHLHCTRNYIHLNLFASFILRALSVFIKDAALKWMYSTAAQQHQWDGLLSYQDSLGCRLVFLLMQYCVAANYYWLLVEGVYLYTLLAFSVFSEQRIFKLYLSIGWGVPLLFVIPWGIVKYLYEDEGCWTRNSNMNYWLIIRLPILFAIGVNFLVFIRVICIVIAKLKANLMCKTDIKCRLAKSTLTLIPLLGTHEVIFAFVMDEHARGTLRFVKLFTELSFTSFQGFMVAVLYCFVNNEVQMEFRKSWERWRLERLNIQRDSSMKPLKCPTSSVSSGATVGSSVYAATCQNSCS
Description: Agonist activity at GLP1R in rat INS-1 cells assessed as increase in glucose-stimulated insulin secretion after 1 hr by HTRF assay. The class given is cell-based. (TR-FRET usually uses a lanthanide donor and a delayed reading to cut background.)

Assay [2] has as its target T2, Glucagon-like peptide 1 receptor (Homo sapiens, UniProt P43220). In words: Agonist activity at human GLP1R expressed in CHOK1 cells assessed as induction of beta-galactosidase-tagged beta-arrestin2 recruitment incubated for 90 mins by PathHunter enzyme complementation assay. The class given is cell-based. Background: Recruitment of arrestin is a read-out of receptor activation apart from second messengers.

Assay [3] concerns the target T2, Glucagon-like peptide 1 receptor. In words: Agonist activity at human GLP1R expressed in CHO cells assessed as cAMP accumulation incubated for 30 mins by LANCE assay. The class given is functional, cell-based. A general note: Changes in cAMP serve as a functional read-out for many G protein-coupled receptors.
For assay [4] the target is unchanged. In words: Displacement of [125I]-GLP (7 to 36 residues) from human GLP1R expressed in CHO cell membranes incubated for 30 mins measured after 10 hrs by scintillation proximity assay.

What is called EC50 is the concentration needed to bring the measured effect to its halfway point. By Ki is commonly meant the dissociation constant of the complex between target and ligand, obtained from inhibition or displacement.

T2 sequence (P43220 whole entry): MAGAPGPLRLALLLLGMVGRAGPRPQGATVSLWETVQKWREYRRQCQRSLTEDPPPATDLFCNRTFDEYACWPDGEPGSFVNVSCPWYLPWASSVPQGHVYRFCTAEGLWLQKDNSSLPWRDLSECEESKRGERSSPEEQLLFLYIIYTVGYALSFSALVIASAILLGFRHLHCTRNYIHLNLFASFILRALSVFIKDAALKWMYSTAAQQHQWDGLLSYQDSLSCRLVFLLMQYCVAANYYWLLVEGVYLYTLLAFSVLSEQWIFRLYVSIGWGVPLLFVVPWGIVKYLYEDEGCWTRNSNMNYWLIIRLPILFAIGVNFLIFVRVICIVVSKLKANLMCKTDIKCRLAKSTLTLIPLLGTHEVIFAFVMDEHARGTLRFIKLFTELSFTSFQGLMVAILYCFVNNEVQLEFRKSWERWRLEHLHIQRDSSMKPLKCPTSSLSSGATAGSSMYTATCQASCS

For `CC[C@H](C)[C@H](NC(=O)[C@H](Cc1ccccc1)NC(=O)[C@H](CCC(=O)O)NC(=O)[C@H](CCCCN)NC(=O)[C@H](C)NC(=O)[C@H](C)NC(=O)[C@H](CCC(N)=O)NC(=O)CNC(=O)[C@H](CCC(=O)O)NC(=O)[C@H](CC(C)C)NC(=O)[C@H](Cc1ccc(O)cc1)NC(=O)[C@H](CO)NC(=O)[C@H](Cc1ccc(O)cc1)NC(=O)[C@@H](NC(=O)[C@H](CC(=O)O)NC(=O)[C@H](CO)NC(=O)[C@@H](NC(=O)[C@H](Cc1ccccc1)NC(=O)[C@@H](NC(=O)CNC(=O)[C@H](CCC(=O)O)NC(=O)[C@H](C)NC(=O)[C@@H](N)Cc1cnc[nH]1)[C@@H](C)O)[C@@H](C)O)C(C)C)C(=O)N[C@@H](C)C(=O)N[C@@H](Cc1c[nH]c2ccccc12)C(=O)N[C@@H](CC(C)C)C(=O)N[C@H](C(=O)N[C@@H](CCCCN)C(=O)NCC(=O)N[C@@H](CCCNC(=N)N)C(=O)NCC(N)=O)C(C)C`, the EC50 in assay [1] turned out to be 16 nM.

Turning to `CC[C@H](C)[C@H](NC(=O)[C@H](Cc1ccccc1)NC(=O)[C@H](CCC(=O)O)NC(=O)[C@H](CCCCN)NC(=O)[C@H](C)NC(=O)[C@H](C)NC(=O)[C@H](CCC(N)=O)NC(=O)CNC(=O)[C@H](CCC(=O)O)NC(=O)[C@H](CC(C)C)NC(=O)[C@H](Cc1ccc(O)cc1)NC(=O)[C@@H]1CC(=O)NCCCC[C@H](NC(=O)[C@@H](NC(=O)[C@H](Cc2ccccc2)NC(=O)[C@@H](NC(=O)CNC(=O)[C@H](CCC(=O)O)NC(=O)[C@H](C)NC(=O)[C@@H](N)Cc2cnc[nH]2)[C@@H](C)O)[C@@H](C)O)C(=O)N[C@@H](CC(=O)O)C(=O)N[C@@H](C(C)C)C(=O)N[C@@H](CO)C(=O)N1)C(=O)N[C@@H](C)C(=O)N[C@@H](Cc1c[nH]c2ccccc12)C(=O)N[C@@H](CC(C)C)C(=O)N[C@H](C(=O)N[C@@H](CCCCN)C(=O)NCC(=O)N[C@@H](CCCNC(=N)N)C(=O)NCC(N)=O)C(C)C` (H-HAEGTFTKDVSDYLEGQAAKEFIAWLVKGRG-NH2; lactam 8-12), in assay [1], the EC50 was found to be 50 nM.

Consider `CC[C@H](C)[C@H](NC(=O)[C@H](Cc1ccccc1)NC(=O)[C@H](CCC(=O)O)NC(=O)[C@H](CCCCN)NC(=O)[C@H](C)NC(=O)[C@H](C)NC(=O)[C@H](CCC(N)=O)NC(=O)CNC(=O)[C@H](CCC(=O)O)NC(=O)[C@H](CC(C)C)NC(=O)[C@H](Cc1ccc(O)cc1)NC(=O)[C@H](CO)NC(=O)[C@H](CO)NC(=O)[C@@H](NC(=O)[C@H](CC(=O)O)NC(=O)[C@H](CO)NC(=O)[C@@H](NC(=O)[C@H](Cc1ccccc1)NC(=O)[C@@H]1CSC(=O)CN[C@@H](Cc2cnc[nH]2)C(=O)N[C@@H](C)C(=O)N[C@@H](CCC(=O)O)C(=O)NCC(=O)N1)[C@@H](C)O)C(C)C)C(=O)N[C@@H](C)C(=O)N[C@@H](Cc1c[nH]c2ccccc12)C(=O)N[C@@H](CC(C)C)C(=O)N[C@H](C(=O)N[C@@H](CCCCN)C(=O)NCC(=O)N[C@@H](CCCNC(=N)N)C(=O)NCC(N)=O)C(C)C`, for which the EC50 in assay [2] and in assay [3] was more than 10000 nM in each case. The compound further had a Ki in assay [4] of more than 50 nM.

Regarding `CC[C@H](C)[C@H](NC(=O)[C@H](Cc1ccccc1)NC(=O)[C@H](CCC(=O)O)NC(=O)[C@H](CCCCN)NC(=O)[C@H](C)NC(=O)[C@H](C)NC(=O)[C@H](CCC(N)=O)NC(=O)[C@H](C)NC(=O)[C@H](CCC(=O)O)NC(=O)[C@H](CC(C)C)NC(=O)[C@H](Cc1ccc(O)cc1)NC(=O)[C@H](CO)NC(=O)[C@H](CO)NC(=O)[C@H](Cc1ccc(O)cc1)NC(=O)[C@H](CC(=O)O)NC(=O)[C@H](CO)NC(=O)[C@@H](NC(=O)[C@H](Cc1ccccc1)NC(=O)[C@@H](NC(=O)CNC(=O)[C@H](CCC(=O)O)NC(=O)[C@H](C)NC(=O)[C@@H](N)Cc1cnc[nH]1)[C@@H](C)O)[C@@H](C)O)C(=O)N[C@H]1CCCCNC(=O)C[C@@H](C(=O)NCC(=O)N[C@@H](CCCNC(=N)N)C(=O)NCC(N)=O)NC(=O)[C@H](C(C)C)NC(=O)[C@H](CC(C)C)NC(=O)[C@H](Cc2c[nH]c3ccccc23)NC1=O` (H-HAEGTFTSDYSSYLEAQAAKEFIKWLVDGRG-NH2; lactam 24-28), the EC50 in assay [2] is 4.6 nM; in assay [3] it was 0.011 nM. In assay [4], the affinity, expressed as Ki, was 0.47 nM.
